Test results: ChEMBL document CHEMBL5050861 (2021); call rule not given here
≈ marks a conversion by molar mass, not a printed value.

Columns and labels:
[1] = Kinetic aqueous solubility of the compound; format: physicochemical; details: buffer; read-out: Kinetic_solubility
[2] = Stability of compound in rat microsomes assessed as half-life; format: ADME, Microsome
[3] = Inhibition of recombinant mouse GALK1 using ATP as substrate incubated for 1 hr and measured by Kinase-Glo assay

SMILES | solubility kinetic [1] | half-life [2] | IC50 ([3]; read-out: IC50) | IC50 [3]
CC1=C(C(=O)Nc2nncs2)C(c2ccncc2Br)N=C(Nc2nc3ccccc3o2)N1 (stereo not given) | 6.5 µg/mL (≈ 12.7 µM) | > 30 min | 19.3 µM | 
CC1=C(C(=O)Nc2ccc(CO)cc2)C(c2ccccc2Cl)N=C(Nc2nc3ccccc3o2)N1 (stereo not given) | < 1 µg/mL | > 30 min |  | 
CC1=C(C(=O)NCc2cnn(C)c2)C(c2ccc(C)cc2Cl)N=C(Nc2nc3ncccc3o2)N1 (stereo not given) | > 49 µg/mL | 6.15 min |  | Not Active
CC1=C(C(=O)Nc2cc(C(=O)O)ccn2)C(c2ccccc2Cl)N=C(Nc2nc3ccccc3o2)N1C (stereo not given) | > 76 µg/mL | > 30 min | 34.4 µM | 
O=C1NCCC2=C1C(c1ccccc1Cl)N=C(Nc1nc3ccccc3o1)N2 (stereo not given) | < 1 µg/mL | 27.1 min | 21.7 µM | 
CC1=C(C(=O)Nc2ccc(C(=O)N3CCOCC3)cc2)C(c2ccccc2Cl)N=C(Nc2nc3ccccc3o2)N1 (stereo not given) | < 1 µg/mL | > 30 min | 21.7 µM | 
COc1ccc([C@H]2N=C(Nc3nc4ccc(F)cc4o3)NC(C)=C2C(=O)Nc2cc(C(=O)O)ccn2)c(Cl)c1 |  |  | 19.3 µM | 
CC1=C(C(=O)Nc2cc(C(=O)O)ccc2Cl)C(c2ccccc2Cl)N=C(Nc2nc3ccc(F)cc3o2)N1 (stereo not given) | 54 µg/mL (≈ 97.4 µM) | > 30 min | 19.3 µM | 
CC1=C(C(=O)Nc2nncs2)C(c2ccccc2C)N=C(Nc2nc3ccccc3o2)N1 (stereo not given) | < 1 µg/mL | > 30 min | 21.7 µM | 
COc1ccc(C2N=C(Nc3nc4cccc(N)c4o3)NC(C)=C2C(=O)Nc2cc(C(=O)O)ccn2)c(Cl)c1 (racemic) | > 81 µg/mL | > 30 min | > 1.93 µM | 
O=C(Nc1nncs1)C1=C(c2cnccn2)NC(Nc2nc3ccccc3o2)=NC1c1ccccc1Cl (stereo not given) | 2.1 µg/mL (≈ 3.96 µM) | > 30 min | 21.7 µM | 
CC1=C(C(=O)Nc2nncs2)C(c2c(Br)cnn2C)N=C(Nc2nc3ccccc3o2)N1 (stereo not given) | 38.7 µg/mL (≈ 75.2 µM) | > 30 min |  | Not Active
CC1=C(C(=O)Nc2cc(C(=O)O)ccn2)C(c2ccc(C)cc2Cl)N=C(Nc2ncc(-c3ccccc3)o2)N1 (stereo not given) | 42.2 µg/mL (≈ 77.7 µM) | > 30 min |  | 
CC1=C(C(=O)Nc2nncs2)C2(CCSCC2)N=C(Nc2nc3ccccc3o2)N1 | 3.5 µg/mL (≈ 7.93 µM) | > 30 min | 24.3 µM | 
O=C(Nc1nncs1)C1=C(C(F)(F)F)NC(Nc2nc3ccccc3o2)=NC1c1ccccc1Cl (stereo not given) | 21.9 µg/mL (≈ 42.1 µM) | > 30 min | 17.2 µM | 
CC1=C(C(=O)NCc2cn(C)cn2)C(c2ccccc2Cl)N=C(Nc2nc3ccc(F)cc3o2)N1 (stereo not given) |  |  | 19.3 µM | 
CC1=C(C(=O)Nc2nncs2)C(c2ncccc2Cl)N=C(Nc2nc3ccccc3o2)N1 (stereo not given) | 10.6 µg/mL (≈ 22.7 µM) | > 30 min | 19.3 µM | 
CC1=C(C(=O)Nc2ccccc2O)C(c2ccccc2Cl)N=C(Nc2nc3ccccc3o2)N1 (stereo not given) | < 1 µg/mL | 17.9 min | 17.2 µM | 
CC1=C(C(=O)Nc2cc(C(=O)O)ccn2)C(c2ccccc2Cl)N=C(Nc2nc3cccc([N+](=O)[O-])c3o2)N1 (stereo not given) | 7.3 µg/mL (≈ 13.3 µM) | > 30 min | 38.5 µM | 
COC(=O)Cc1nnc(NC(=O)C2=C(C)NC(Nc3nc4ccccc4o3)=NC2c2ccccc2Cl)s1 (stereo not given) | < 1 µg/mL | 8.09 min |  | 
CC1=C(C(=O)Nc2nc(C(=O)O)cs2)C(c2ccccc2Cl)N=C(Nc2nc3ccccc3o2)N1 (stereo not given) |  |  | 19.3 µM | 
CC1=C(C(=O)Nc2cncc(C(=O)O)c2)C(c2ccccc2Cl)N=C(Nc2nc3ccccc3o2)N1 (stereo not given) | 60.3 µg/mL (≈ 120 µM) | > 30 min |  | 
COC(=O)c1cncc(NC(=O)C2=C(C)NC(Nc3nc4ccccc4o3)=NC2c2ccccc2Cl)c1 (stereo not given) | < 1 µg/mL | > 30 min |  | 
CC1=C(C(=O)Nc2ccc(-n3cncn3)cc2)C(c2ccccc2Cl)N=C(Nc2nc3ccccc3o2)N1 (stereo not given) |  |  | 34.4 µM | 
CC1=C(C(=O)Nc2nnc(-c3cccnc3)s2)C(c2ccccc2Cl)N=C(Nc2nc3cc(N)ccc3o2)N1 (stereo not given) | 1.8 µg/mL (≈ 3.23 µM) | > 30 min |  | 
CC1=C(C(=O)Nc2cccc(CCO)c2)C(c2ccccc2Cl)N=C(Nc2nc3ccccc3o2)N1 (stereo not given) |  | 26.6 min |  | 

Results, then the compound that gave them:

solubility kinetic [1] | half-life [2] | IC50 ([3]; read-out: IC50) | IC50 [3] | SMILES
< 1 µg/mL | > 30 min | 13.7 µM |  | COC(=O)c1csc(NC(=O)C2=C(C)NC(Nc3nc4ccccc4o3)=NC2c2ccccc2Cl)n1 (stereo not given)
 |  | 17.2 µM |  | CC1=C(C(=O)Nc2cc(C(=O)O)ccc2C)C(c2ccccc2Cl)N=C(Nc2nc3ccc(F)cc3o2)N1 (stereo not given)
< 1 µg/mL | 22.3 min | 9.68 µM |  | CC1=C(C(=O)Nc2ccc(CN3CCOCC3)cc2)C(c2ccccc2Cl)N=C(Nc2nc3ccccc3o2)N1 (stereo not given)
< 1 µg/mL | 2.74 min | 5.44 µM |  | CC1=C(C(=O)NCc2cnn(Cc3ccccc3)c2)C(c2ccc(C)cc2Cl)N=C(Nc2nc3ccc(F)cc3o2)N1 (stereo not given)
37.5 µg/mL (≈ 77 µM) | > 30 min | 6.85 µM |  | CC1=C(C(=O)Nc2cccc(CN)c2)C(c2ccccc2Cl)N=C(Nc2nc3ccccc3o2)N1 (stereo not given)
2.43 µg/mL (≈ 4.68 µM) | 11.3 min | 3.06 µM |  | CCn1cc(CNC(=O)C2=C(C)NC(Nc3nc4cccc(N)c4o3)=NC2c2ccc(C)cc2Cl)cn1 (stereo not given)
< 1 µg/mL | 11.5 min | 13.7 µM |  | CC1=C(C(=O)Nc2ccc(N(C)C)cc2)C(c2ccccc2Cl)N=C(Nc2nc3ccccc3o2)N1 (stereo not given)
< 1 µg/mL | > 30 min | 17.2 µM |  | COc1ccc(Cl)c(C2N=C(Nc3nc4ccccc4o3)NC(C)=C2C(=O)Nc2nncs2)c1 (stereo not given)
1.92 µg/mL (≈ 3.18 µM) | > 30 min | 12.2 µM |  | CC1=C(C(=O)Nc2cc(C(=O)O)ccn2)C(c2ccc(N3CCCCC3)cc2Cl)N=C(Nc2nc3ccc(F)cc3o2)N1 (stereo not given)
6.2 µg/mL (≈ 11.6 µM) | 17.6 min | 6.85 µM |  | CC1=C(C(=O)Nc2cc(N(C)C)ccn2)C(c2ccc(C)cc2Cl)N=C(Nc2nc3ccc(F)cc3o2)N1 (stereo not given)
 |  | 6.85 µM |  | CC1=C(C(=O)Nc2ccc(C(N)=O)cn2)C(c2ccccc2Cl)N=C(Nc2nc3ccc(F)cc3o2)N1 (stereo not given)
< 1 µg/mL | > 30 min | 10.9 µM |  | CC1=C(C(=O)Nc2ccccn2)C(c2ccccc2Cl)N=C(Nc2nc3ccc(F)cc3o2)N1 (stereo not given)
13.7 µg/mL (≈ 27.7 µM) | 26 min | 12.2 µM |  | CC1=C(C(=O)NCc2cnn(C)c2)C(c2ccccc2Cl)N=C(Nc2nc3ccc(F)cc3o2)N1 (stereo not given)
< 1 µg/mL | > 30 min | 10.9 µM |  | CC1=C(C(=O)Nc2ccccn2)C(c2ccccc2Cl)N=C(Nc2nc3ccccc3o2)N1 (stereo not given)
4.6 µg/mL (≈ 8.53 µM) | 14.1 min | 8.63 µM |  | CCn1cc(CNC(=O)C2=C(C)NC(Nc3nc4cccc(N)c4o3)=NC2c2ccc(Cl)cc2Cl)cn1 (stereo not given)
< 1 µg/mL | 5.48 min | 10.9 µM |  | O/N=C1\CCCC2=C1C(c1ccccc1Cl)N=C(Nc1nc3ccccc3o1)N2 (stereo not given)
3 µg/mL (≈ 5.87 µM) | > 30 min | 6.85 µM |  | CC1=C(C(=O)Nc2nncs2)C(c2ncccc2Br)N=C(Nc2nc3ccccc3o2)N1 (stereo not given)
< 1 µg/mL | 4.68 min | 6.85 µM |  | COC(=O)c1ccc(NC(=O)C2=C(C)NC(Nc3nc4ccccc4o3)=NC2c2ccccc2Cl)cn1 (stereo not given)

solubility kinetic [1] | half-life [2] | IC50 ([3]; read-out: IC50) | IC50 [3] | SMILES
< 1 µg/mL | 7.46 min | 12.2 µM |  | COC(=O)Cc1ccc(NC(=O)C2=C(C)NC(Nc3nc4ccccc4o3)=NC2c2ccccc2Cl)cc1 (stereo not given)
12 µg/mL (≈ 22.5 µM) | 2.37 min | 6.85 µM |  | CC1=C(C(=O)NCc2c(C)nn(C)c2C)C(c2ccc(C)cc2Cl)N=C(Nc2nc3cccc(N)c3o2)N1 (stereo not given)
< 1 µg/mL | > 30 min | 12.2 µM |  | CC1=C(C(=O)Nc2cccc(F)c2)C(c2ccccc2Cl)N=C(Nc2nc3ccccc3o2)N1 (stereo not given)
10 µg/mL (≈ 20.5 µM) | 72.5 min | 4.32 µM |  | CC1=C(C(=O)Nc2ccc(CN)cc2)C(c2ccccc2Cl)N=C(Nc2nc3ccccc3o2)N1 (stereo not given)
 |  | 1.99 µM |  | COc1ccc([C@@H]2N=C(Nc3nc4ccc(F)cc4o3)NC(C)=C2C(=O)Nc2cc(C(=O)O)ccn2)c(Cl)c1
< 1 µg/mL | > 30 min | 9.68 µM |  | CC1=C(C(=O)Nc2ccccc2F)C(c2ccccc2Cl)N=C(Nc2nc3ccccc3o2)N1 (stereo not given)
< 1 µg/mL | > 30 min | 12.2 µM |  | CC1=C(C(=O)Nc2nncs2)C(c2ccccc2C(F)(F)F)N=C(Nc2nc3ccccc3o2)N1 (stereo not given)
< 1 µg/mL | > 30 min | 7.69 µM |  | CC1=C(C(=O)Nc2cc(C(N)=O)ccn2)C(c2ccccc2Cl)N=C(Nc2nc3ccccc3o2)N1 (stereo not given)
 |  | 12.2 µM |  | CC1=C(C(=O)Nc2ccc(-c3cn[nH]c3)cc2)C(c2ccccc2Cl)N=C(Nc2nc3ccccc3o2)N1 (stereo not given)
17.1 µg/mL (≈ 33.9 µM) | 18.9 min | 1.58 µM |  | CC1=C(C(=O)NCc2cnn(C)c2)[C@H](c2ccc(C)cc2Cl)N=C(Nc2nc3cccc(N)c3o2)N1
24.2 µg/mL (≈ 50.8 µM) | 15.7 min | 12.2 µM |  | CC1=C(C(=O)NCc2cnn(C)c2)C(c2ccccc2Cl)N=C(Nc2nc3ccccc3o2)N1 (stereo not given)
< 1 µg/mL | 1.4 min | 12.2 µM |  | COc1ccccc1CNC(=O)C1=C(C)NC(Nc2nc3ccccc3o2)=NC1c1ccccc1Cl (stereo not given)
< 1 µg/mL | 6.79 min | 1.93 µM |  | CCn1cc(CNC(=O)C2=C(C)NC(Nc3nc4ccc(F)c(N)c4o3)=NC2c2ccc(Cl)cc2Cl)cn1 (stereo not given)
4.23 µg/mL (≈ 8.56 µM) | 10.2 min | 4.85 µM |  | COCCNC(=O)C1CC(=O)C2=C(C1)NC(Nc1nc3ccccc3o1)=NC2c1ccccc1Cl (stereo not given)
< 1 µg/mL | > 30 min | 6.85 µM |  | CNC(=O)C1CC(=O)C2=C(C1)NC(Nc1nc3ccccc3o1)=NC2c1ccccc1Cl (stereo not given)
< 1 µg/mL | > 30 min | 10.9 µM |  | CC1=C(C(=O)Nc2cc(CO)ccn2)C(c2ccccc2Cl)N=C(Nc2nc3ccc(F)cc3o2)N1 (stereo not given)
22.1 µg/mL (≈ 41.1 µM) |  | 0.97 µM |  | CCn1cc(CNC(=O)C2=C(C)NC(Nc3nc4ccc(F)c(N)c4o3)=N[C@H]2c2ccc(C)cc2Cl)cn1
 | 18.8 min | 7.69 µM |  | CCn1cc(CNC(=O)C2=C(C)NC(Nc3nc4cccc(N)c4o3)=NC2c2ccc(F)cc2Cl)cn1 (stereo not given)
